Structures are written as SMILES.

One assay deals with VLA-4 (Homo sapiens, UniProt P05556+P13612). Briefly: cell-based. The class given is cell-based. More on the design: host or cells: Jurkat (human T lymphoblastic line).
VLA-4, sequence (P13612 34-1032): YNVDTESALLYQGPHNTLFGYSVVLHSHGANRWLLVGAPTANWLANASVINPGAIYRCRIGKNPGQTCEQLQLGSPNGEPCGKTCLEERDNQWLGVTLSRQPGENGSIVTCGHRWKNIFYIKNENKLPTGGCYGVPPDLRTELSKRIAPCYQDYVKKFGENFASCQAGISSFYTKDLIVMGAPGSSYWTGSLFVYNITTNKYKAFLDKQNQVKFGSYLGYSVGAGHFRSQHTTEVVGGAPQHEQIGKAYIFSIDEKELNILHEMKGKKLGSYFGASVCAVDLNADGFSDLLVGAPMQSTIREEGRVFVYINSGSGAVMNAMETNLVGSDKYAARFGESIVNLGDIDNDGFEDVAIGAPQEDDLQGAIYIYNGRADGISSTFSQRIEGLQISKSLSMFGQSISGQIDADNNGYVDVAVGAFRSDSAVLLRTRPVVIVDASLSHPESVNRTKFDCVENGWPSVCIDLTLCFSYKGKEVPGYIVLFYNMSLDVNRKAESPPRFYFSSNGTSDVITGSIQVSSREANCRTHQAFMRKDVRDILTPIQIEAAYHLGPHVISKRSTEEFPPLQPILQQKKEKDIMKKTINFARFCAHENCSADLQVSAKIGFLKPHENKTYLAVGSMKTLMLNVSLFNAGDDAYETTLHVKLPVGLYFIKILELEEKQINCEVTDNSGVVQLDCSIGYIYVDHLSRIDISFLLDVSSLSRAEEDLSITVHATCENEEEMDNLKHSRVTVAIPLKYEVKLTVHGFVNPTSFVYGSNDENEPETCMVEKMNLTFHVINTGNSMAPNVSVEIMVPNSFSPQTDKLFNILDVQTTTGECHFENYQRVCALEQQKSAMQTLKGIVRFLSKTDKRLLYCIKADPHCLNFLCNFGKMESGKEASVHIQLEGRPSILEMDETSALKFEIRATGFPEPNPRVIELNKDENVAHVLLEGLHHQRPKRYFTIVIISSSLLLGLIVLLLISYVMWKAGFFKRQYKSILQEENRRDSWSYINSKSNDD
VLA-4, sequence (P05556 21-798): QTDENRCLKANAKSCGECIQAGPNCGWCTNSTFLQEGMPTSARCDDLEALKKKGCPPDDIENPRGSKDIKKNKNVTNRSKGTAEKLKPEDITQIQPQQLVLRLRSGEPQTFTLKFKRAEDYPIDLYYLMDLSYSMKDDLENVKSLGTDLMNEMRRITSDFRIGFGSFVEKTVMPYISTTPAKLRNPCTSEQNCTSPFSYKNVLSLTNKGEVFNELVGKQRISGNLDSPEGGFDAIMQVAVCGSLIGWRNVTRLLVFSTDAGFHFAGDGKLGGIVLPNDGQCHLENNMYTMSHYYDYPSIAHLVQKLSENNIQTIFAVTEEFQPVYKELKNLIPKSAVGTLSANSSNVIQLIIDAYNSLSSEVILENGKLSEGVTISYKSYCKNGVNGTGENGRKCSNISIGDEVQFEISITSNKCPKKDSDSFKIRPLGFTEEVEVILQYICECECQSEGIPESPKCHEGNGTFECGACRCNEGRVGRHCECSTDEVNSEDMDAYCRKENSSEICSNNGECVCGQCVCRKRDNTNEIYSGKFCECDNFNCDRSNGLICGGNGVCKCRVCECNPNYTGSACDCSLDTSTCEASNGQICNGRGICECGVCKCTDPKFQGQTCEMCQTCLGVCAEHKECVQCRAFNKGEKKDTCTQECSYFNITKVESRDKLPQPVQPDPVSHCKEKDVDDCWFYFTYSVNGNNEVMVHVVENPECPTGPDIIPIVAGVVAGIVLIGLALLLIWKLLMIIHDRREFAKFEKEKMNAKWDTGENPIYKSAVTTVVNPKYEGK
Conditions: not given
On the procedure:
Binding inhibition is measured here as a concentration of peptide that inhibits one-half the binding between a standard number of Jurkat cells and a standard amount of CS-1 peptide bound to the surface of a microtiter plate well. Those concentrations are conveniently expressed as IC50 values, smaller numbers indicating a lower concentration required to inhibit 50 percent binding and therefore greater potency. Further specifics of this assay are provided hereinafter.
Jurkat cells (ATCC TIB 152), a human T lymphoblastic line, labeled with ^51 chromium were used to assay in vitro binding inhibition provided by various peptides discussed herein.
The plates were prepared as follows: The 25-mer CS-1 peptide (SEQ ID NO:1) dissolved at 0.5-1 μg/ml in a buffer of 0.1M NaHCO3 at pH 9.5 that also contained 10 μg/ml of bovine serum albumin (BSA) or a conjugate of the CS-1 peptide linked to ovalbumin (CS-1-OVA) dissolved at 1-2.5 μg/ml in the same buffer was used as the substrate. Each well of the microtiter plates was coated with 50 μl of substrate or buffer alone for controls. The wells were permitted to dry out completely and were then rinsed twice with PBS at pH 7.4. Non-specific binding sites of each well were then blocked using 200 μl per well of RPMI/1 percent BSA for two hours at room temperature. Both solid phase-affixed substrates provided similar results.
Jurkat cells (3-5×10^6 cells) were placed into a 15 ml Falcon™ round-bottom tube with a cap. The tube was centrifuged, and the extra medium was then removed.
Two hundred microliters of a ^51 Cr labeling solution were added to the centrifuged cells and maintained in contact with the cells for 90-120 minutes in a warm room. This procedure typically provides about 50,000-100,000 cpm/well with about 80-100 percent cell viability. Longer contact times provide a greater amount of labeling but lower cell viability.
The labeled cells are washed with (i) complete medium, (ii) 1 mM EDTA/PBS and then (iii) RPM1/1 percent BSA free of serum components. The cells are centrifuged after each washing. The cells are finally resuspended in serum-free RPMI/1 percent BSA at a concentration of 1×10^6 viable cells/ml, which provides a concentration that is diluted by one-half in the assay.
Inhibitor peptides are prepared as stock solutions at 20 mg/ml in DMSO in 1.5 ml cryogenic screwcap vials, and were stored at -70° C. Using Flow™ round-bottom or V-bottom microtiter plates, the inhibitor peptides were prepared at twice the assay concentration in RPMI/1 percent BSA at 60 μl well.
Four initial dilutions were typically used.
The ^51 Cr-labeled cells (1×10^6 cells at 60 μl/well) were then admixed with the diluted peptide solutions. The admixtures were maintained at room temperature (about 22° C.) for 30 minutes.
One hundred microliters of each inhibitor peptide/cell admixture were transferred to the substrate-coated wells. This was done in triplicate for each dilution. The resulting plates were incubated for 30 minutes at 37° C. and then washed gently three times with RPMI/1 percent BSA at 200 μl/well. Binding was observed microscopically, particularly after the second wash.
The bound cells were then lysed by the addition of a 0.5 percent solution of sodium dodecylsulfate in water at 100 μ/l well. The resulting solutions were then processed for counting and calculation of IC50 values following usual procedures. Appropriate positive and negative controls were used with each plate so that the results of separate assays could be normalized and compared.
The data of Table 1 are so normalized.
Regarding `CC(C)COC(=O)N[C@@H](CC(=O)O)C(=O)N[C@@H](Cc1ccccc1)C(=O)N1CCCCC1`, the “RELATIVE POTENCY (relative peptide inhibition of VLA-4 binding CS-1)” value was determined as 0.
Same read-out and setting: the value for `CC(C)CC(C(=O)NCc1ccccc1)C(=O)N[C@@H](CC(=O)O)C(=O)N[C@@H](Cc1ccccc1)C(=O)N1CCC[C@@H]1C(N)=O` (stereo partly drawn) was 2; that for `CC(C)C[C@H](NC(=O)Cc1ccc(O)c(O)c1)C(=O)N[C@@H](CC(=O)O)C(=O)N[C@@H](Cc1ccccc1)C(=O)N1CCCCC1` was 81; that for `CC(C)C[C@@H](C(=O)N[C@@H](CC(=O)O)C(=O)N[C@@H](Cc1ccccc1)C(=O)N1CCCCC1)N1C(=O)NC(c2ccccc2)C1=O` (stereo partly drawn) was 34.
On to `CC(C)C[C@@H](C(=O)N[C@@H](CC(=O)O)C(=O)N[C@@H](Cc1ccccc1)C(=O)N1CCC[C@@H]1C(N)=O)n1c(=O)[nH]c2ccccc2c1=O`, for which the “RELATIVE POTENCY (relative peptide inhibition of VLA-4 binding CS-1)” value turned out to be 56.
Turning to `CC(C)C[C@H](NC(=O)c1ccncc1)C(=O)N[C@@H](CC(=O)O)C(=O)N[C@@H](Cc1ccc(O)cc1)C(=O)N1CCCCC1`, the “RELATIVE POTENCY (relative peptide inhibition of VLA-4 binding CS-1)” value was found to be 24.

The assay is the same for the next values; noted with them: normalized IC50 relative to standard peptide of SEQ ID NO:3 (=1); about one-tenth or less of the standard is assigned zero.
Take `CC(C)C[C@H](NC(=O)Cc1ccccc1)C(=O)N[C@@H](CC(=O)O)C(=O)N[C@@H](Cc1ccccc1)C(=O)N1CCCC1CO` (stereo partly drawn): the “RELATIVE POTENCY (relative peptide inhibition of VLA-4 binding CS-1)” value came out at 184.
Still for that read-out and setting: the value for `CC(C)C[C@H](NC(=O)Cc1ccccc1)C(=O)N[C@@H](CC(=O)O)C(=O)N[C@@H](Cc1ccccc1)C(=O)N1CC(O)C(O)C1` (stereo partly drawn) was 194.
As to `CC(C)C[C@H](NC(=O)Cc1ccccc1)C(=O)N[C@@H](CC(=O)O)C(=O)N[C@@H](Cc1ccccc1)C(=O)N1CCC(O)CC1`, the “RELATIVE POTENCY (relative peptide inhibition of VLA-4 binding CS-1)” value is listed as 603.
As to `CC(C)C[C@H](NC(=O)Cc1ccccc1)C(=O)N[C@@H](CC(=O)O)C(=O)N[C@H]1Cc2ccccc2[C@H]2CCCCN2C1=O`, the “RELATIVE POTENCY (relative peptide inhibition of VLA-4 binding CS-1)” value was found to be 50.
For the compound `CC(C)C[C@H](NC(=O)Cc1ccccc1)C(=O)N[C@@H](CC(=O)O)C(=O)NC1Cc2ccccc2N(CCN2CCOCC2)C1=O` (stereo partly drawn), the “RELATIVE POTENCY (relative peptide inhibition of VLA-4 binding CS-1)” value stood at 20.
For the compound `CC(C)C[C@H](NC(=O)Cc1ccccc1)C(=O)N[C@@H](CC(=O)O)C(=O)NC1CCCCN(CC(N)=O)C1=O` (stereo partly drawn), the “RELATIVE POTENCY (relative peptide inhibition of VLA-4 binding CS-1)” value turned out to be 97.
In the case of `CC(C)C[C@H](NC(=O)Cc1ccccc1)C(=O)N[C@@H](CC(=O)O)C(=O)NC1Cc2ccccc2N(CC(C)C)C1=O` (stereo partly drawn), the “RELATIVE POTENCY (relative peptide inhibition of VLA-4 binding CS-1)” value is recorded as 6.
Regarding `CC(C)C[C@H](NC(=O)Cc1ccccc1)C(=O)N[C@@H](CC(=O)O)C(=O)NCCN1CCOCC1`, the “RELATIVE POTENCY (relative peptide inhibition of VLA-4 binding CS-1)” value turned out to be 13.
Still for that read-out and setting: with `CC(C)C[C@H](NC(=O)Cc1ccccc1)C(=O)N[C@@H](CC(=O)O)C(=O)NC1Cc2ccccc2NC1=O` (stereo partly drawn) the figure was 31; with `CC(C)C[C@H](NC(=O)Cc1ccccc1)C(=O)N[C@@H](CC(=O)O)C(=O)NC1Cc2ccccc2N(CC(N)=O)C1=O` (stereo partly drawn), 45; with `CC(C)C[C@H](NC(=O)Cc1ccccc1)C(=O)N[C@@H](CC(=O)O)C(=O)NC1CCCCNC1=O` (stereo partly drawn), 27.
Still for that read-out and setting: with `CC(C)C[C@H](NC(=O)Cc1ccccc1)C(=O)N[C@@H](CC(=O)O)C(=O)NC1Cc2ccccc2CN1` (stereo partly drawn) the figure was 3; with `CC(C)C[C@H](NC(=O)Cc1ccccc1)C(=O)N[C@@H](CC(=O)O)C(=O)N[C@@H]1CCCCNC1=O`, 17; with `CC(C)C[C@H](NC(=O)Cc1ccccc1)C(=O)N[C@@H](CC(=O)O)C(=O)NN(Cc1ccccc1)C(=O)C1CCCC1`, 1.
The same measure, in the same setting: the value for `CC(C)C[C@H](NC(=O)Cc1ccccc1)C(=O)N[C@@H](CC(=O)O)C(=O)NC1CCN(C2CCCCC2)C1=O` (stereo partly drawn) was 7.

The values are drawn from US5688913A, “CS-1 peptidomimetics, compositions and methods of using the same” (Cytel Corporation, priority 1995, dated 1997).
